The values that follow come from patent publication US20090076050A1, “SYNERGISTIC TUMOR-KILLING EFFECT OF RADIATION AND BERBERINE COMBINED TREATMENT IN LUNG CANCER” (CHUNG SHAN MEDICAL U., priority 2007, published 2009).

Holding throughout (type): cell-based, human
Experiment [1] has as its system A549 cells. Description: electron microscopic analysis of autophagy. As to conditions: IR and 5.0 μM berberine, 24 h. As for the experimental part: Autophagic cell death has been recognized as programmed cell death type II, it has been detected in a variety of cancer cells treated with radiation or chemotherapy. Therefore, it had been examined whether IR treatment combined with berberine induced autophagic cell death in A549 cells by electron microscopic analysis (FIG. 4A). Cells were harvested by trypsinization, and fixed with 2% glutaraldehyde, 4% paraformaldehyde and 1% tannic acid in 0.1 mol/L cacodylate buffer, pH 7.4, for 25 h. The cells were stained with an osmium-thiocarbohydrazide-osmium (OTO). After staining, the cells were dehydrated in a graded series of 70% to 100% EtOH and then immersed serially with 1:1 hexamethyldisilazane and absolute ethanol. […] Autophagy is characterized by the development of AVOs, which is measured by vital staining of acridine orange. […] To quantitate acidic vesicular organelles, Stained cells were collected for the FACScan (Becton Dickinson, San Jose, Calif.) using CellQuest software (Becton Dickinson). Acridine orange-positive cells with bright red fluorescence were detected among A549 cells 24 h after co-treated with berberine and IR (6 Gy), whereas they were sparse among non-treated cells or irradiated cells (FIG. 4B). […]

Experiment [2] has as its system LC3-II in A549 cells. Description: immunoblotting for LC3-I, LC3-II. As to conditions: 24 h after IR combined with increasing concentrations of berberine. As for the experimental part: The role of apoptosis in the sensitivity of A549 cells to IR induced by berberine was further clarified by DAPI stain. DNA extraction and electrophoresis on agarose gel were carried out as described previously (Solary E, et al. Therapie 2001; 56:511-18). After the indicated treatments, cells were fixed with 3 mL of 4% paraformaldehyde. To stain the cells, 500 μL of a 0.5 μg/mL chilled solution of DAPI (Invitrogen) stain was added and allowed to sit for 5 min. The cells were then rinsed with PBS solution and counted under a fluorescent microscope. For positive control of DNA fragmentation and DAPI stain, A549 cells were treated with 30 μM etoposide for 24 h. […] This contention was further confirmed by the lack of apoptotic DNA fragmentation and activation of caspase-3 and poly-(ADP-ribose) polymerases (PARP) as analyzed by DNA electrophoresis and immunoblotting (FIG. 3B, 3C). After the indicated treatment, the resultant supernatants were separated in 12%˜18% polyacrylamide gels. The blot was incubated with a polyclonal antibody against LC3 (gift from T. Yoshimori), PARP, caspase-3, bcl-2, beclin-1 and β-actin (Santa Cruz biotechnology, USA) for 2 h, and then with an appropriate peroxidase-conjugated secondary antibody (Sigma) for 1 h at 37° C. […] LC3 is localized in autophagosome membranes during amino acid starvation-induced autophagy (Mizushima N, et al. J Cell Biol 2001; 152:657-68.). […]

Experiment [3] has as its system A549 cells. Kind of experiment: mitochondrial membrane potential by JC-1 flow cytometry. The conditions noted are these: 1.0, 2.5, 5.0 and 10 μM berberine combined with irradiation (6 Gy), 24 h. As for the experimental part: Berberine has been reported to induce cell death in several cancer cells via mitochondrial disruption (Lin J P, et al. World J Gastroenterol 2006; 12:21-28.). Therefore, mitochondrial membrane potential was next measured with JC-1. Mitochondria membrane potential (Δ Ψm), the lipophilic cationic probe fluorochrome JC-1 (Invitrogen) was used. […] After a treatment of radiation (6 Gy) for 24 h in the absence or presence of 1.0-10 μM berberine, cells were rinsed with DMEM, and JC-1 (5 μmol/L) was loaded. Determination of Δ Ψm was also carried out with a FACScan Flow Cytometer. […] It has been reported that depolarized mitochondria would move into autophagic vacuoles in response to appropriate stimulation; thus, mitochondria dysfunction may be a point of overlap between apoptotic and autophagocytic processes (Bras M, et al. Biochemistry (Mosc) 2005; 70:231-39). […] On the other hand, beclin-1 siRNA and 3-MA (autophagy inhibitor) blocked the cell death induced by 5.0 μM berberine combined with 6 Gy IR (p<0.001). As a consequence, berberine sensitized A549 cells to IR damage via inducing autophagic cell death.
Background: A flow cytometer gives signals particle by particle.

With `COc1ccc2cc3[n+](cc2c1OC)CCc1cc2c(cc1-3)OCO2` [berberine, Berberine], the “autophagic vacuoles by electron microscopy” value in experiment [1] is “Numerous empty vacuoles and autophagic vacuoles”. Also, in experiment [2], the “expression of LC3-II” value was “increased dose-dependently”. Further, in experiment [3], the “mitochondrial membrane potential (JC-1)” value was “great loss of membrane potential”.
